Assay [1] in a line: Inhibition of RabGGTase using [3H]GGPP as substrate after 1 hr by scintillation proximity assay. For orientation: SPA uses beads or plates that emit light when radiolabelled molecules are held near them.
A further assay has as its system PBMC. Put plainly: Cytotoxicity against human PBMC cells after 24 hrs by Alamar Blue assay. It counts as cell-based.
Assay [2] can be described thus: Inhibition of GGTase 1 using NBD-FPP as substrate after 10 mins by solution based fluorometric assay.
The test system of another assay is HeLa. Put plainly: Cytotoxicity against human HeLa cells after 24 hrs by Alamar Blue assay. It counts as functional, cell-based.
The nature of assay [3]: Inhibition of RabGGTase in human HeLa cells after 6 hrs by reprenylation assay. The format is cell-based.
The nature of assay [4]: Inhibition of FTase using NBD-GPP as substrate after 10 mins by solution based fluorometric assay.
In another assay the test system is HCT-116. Put plainly: Cytotoxicity against human HCT116 cells after 24 hrs by Alamar Blue assay. The format is functional, cell-based. The conditions noted are these: HCT-116, 24 h. Background: The colour change of resazurin is a common sign of viable cells or microbes.
For another assay, the system named is A549. Put plainly: Cytotoxicity against human A549 cells after 24 hrs by Alamar Blue assay. The format is functional, cell-based. The conditions noted are these: A549, 24 h.
The subject of the next assay is DU-145. Put plainly: Cytotoxicity against human DU145 cells after 24 hrs by Alamar Blue assay. The conditions noted are these: DU-145, 24 h. The format is functional, cell-based.
Another assay relates to A2780. Put plainly: Cytotoxicity against human A2780 cells after 24 hrs by Alamar Blue assay. The format is functional, cell-based. The conditions noted are these: A2780, 24 h.
Assay [5] is described as follows: Inhibition of RabGGTase using NBD-FPP as substrate after 5 mins by fluorometric assay.
A short description of assay [6]: Inhibition of rat RabGGTase using [3H]GGPP as substrate after 30 mins by scintillation counter.

Molecules are shown by their SMILES. pIC50: −log10 of the molar value.

Among the data in ChEMBL document CHEMBL2169825, “Development of selective, potent RabGGTase inhibitors” (J Med Chem, 2012) are IC50 values, retold here.

By pIC50 is commonly meant the IC50 on a negative log10 scale, so that one unit is a factor of ten. Regarding `COc1ccc(S(=O)(=O)N2Cc3cc(C#N)ccc3N(Cc3cncn3C)C[C@H]2Cc2ccccc2)cc1`, the pIC50 in assay [1] is 8.19; with PBMC, less than 5.00; in assay [2], less than 4.00; with HeLa, 7.00; in assay [3] it was 7.13; in assay [4], 8.22. Besides, the pIC50 is 7.20 in the assay with HCT-116; 7.00 in the assay on A549; 7.15 in the assay on DU-145; 7.37 in the assay with A2780; 6.14 in assay [5]; 7.68 in assay [6].

Take `CCCCOc1ccc(C[C@@H]2CN(Cc3cncn3C)c3ccc(C#N)cc3CN2S(=O)(=O)c2ccc(OC)cc2)cc1`: the pIC50 was 6.81 in [1]; 5.06 in the assay on PBMC; less than 4.00 in assay [2]; 6.81 with HeLa; 6.51 in assay [3]; 8.00 in assay [4]. The pIC50 in the assay with HCT-116 is 6.58; in the assay on A549, 6.67; with DU-145, 6.62; with A2780, 6.78; in assay [5], 6.79.

With `COc1ccc(S(=O)(=O)N2Cc3cc(C#N)ccc3N(Cc3cncn3C)C[C@H]2Cc2ccc(-c3cccnc3)cc2)cc1`, the pIC50 was 7.96 in assay [1]; less than 5.00 in the assay on PBMC; 5.44 in assay [2]; 6.39 in the assay on HeLa; 6.33 in assay [3]; 8.37 in assay [4]. The pIC50 in the assay with HCT-116 is 6.51; in the assay on A549, 6.35; in the assay on DU-145, 6.38; in the assay on A2780, 6.40; in assay [5] it was 6.45.

With `COc1ccc(S(=O)(=O)N2Cc3cc(C#N)ccc3N(Cc3cncn3C)C[C@H]2Cc2ccc(OCC=C(C)C)cc2)cc1`, the pIC50 in assay [1] is 7.20; with PBMC, 5.10; in [2], less than 4.00; in the assay on HeLa, 7.23; in [3] it was 7.37; in [4], 7.82. The pIC50 in the assay with HCT-116 was 6.95; in the assay on A549, 7.13; with DU-145, 7.05; in the assay on A2780, 6.94; in assay [5] it was 7.41.

Regarding `COc1ccc(S(=O)(=O)N2Cc3cc(C#N)ccc3N(Cc3cncn3C)C[C@H]2Cc2ccc(OC(=O)NCc3ccccc3)cc2)cc1`, the pIC50 in the assay with PBMC is less than 5.00; in assay [2], less than 4.00; in the assay with HeLa, 6.82; in assay [3], 7.09; in the assay on HCT-116, 6.64; with A549, 6.47. Moreover, the pIC50 in the assay with DU-145 was 6.85; in the assay on A2780 it was 6.89; in [5], 7.14.
